Read-outs that look alike come from different tables or passages of the source.
What was measured:
Abeta 40 = assay: In vivo inhibition of beta-secretase: percent Abeta 40 reduction in CSF and brain; design: species or system rat; conditions: after 4 hrs; for inhibition in vivo at 10 mg/kg: 10 mpk
From the text: In Vivo Inhibition of Beta-Secretase
Several animal models, including mouse, rat, dog, and monkey, may be used to screen for inhibition of beta-secretase activity in vivo following administration of a test compound sample. Animals used in this invention can be wild type, transgenic, or gene knockout animals. For example, the Tg2576 mouse model, prepared and conducted as described in Hsiao et al., 1996, Science 274, 99-102, and other non-transgenic or gene knockout animals are useful to analyze in vivo inhibition of Amyloid beta peptide (Abeta) production in the presence of inhibitory test compounds. Generally, 2 to 18 month old Tg2576 mice, gene knockout mice or non-transgenic animals are administered test compounds formulated in vehicles, such as cyclodextran, phosphate buffers, hydroxypropyl methylcellulose or other suitable vehicles. One to twenty-four hours following the administration of compound, animals are sacrificed, and brains as well as cerebrospinal fluid (CSF) and plasma are removed for analysis of A-beta levels and drug or test compound concentrations (Dovey et al., 2001, Journal of Neurochemistry, 76, 173-181) Beginning at time 0, animals are administered by oral gavage, or other means of delivery such as intravenous injection, an inhibitory test compound of up to 100 mg/kg in a standard, conventional formulation, such as 2% hydroxypropyl methylcellulose, 1% Tween80. A separate group of animals receive 2% hydroxypropyl methylcellulose, 1% Tween80 alone, containing no test compound, and serve as a vehicle-control group. At the end of the test period, animals are sacrificed and brain tissues, plasma or cerebrospinal fluid are collected. Brains are either homogenized in 10 volumes (w/v) of 0.2% diethylamine (DEA) in 50 mM NaCl (Best et al., 2005, Journal of Pharmacology and Experimental Therapeutics, 313, 902-908), or in 10 volumes of 0.5% TritonX-100 in Tris-buffered saline (pH at about 7.6). Homogenates are centrifuged at 355,000 g, 4° C. for 30 minutes. CSF or brain supernatants are then analyzed for the presence of A-beta peptide by specific sandwich ELISA assays based on ECL (Electrochemiluminescence) technology. For example, rat Abeta40 is measured using biotinylated-4G8 (Signet) as a capture antibody and Fab40 (an in-house antibody specific to the C-terminal of Abeta40) as a detection antibody. For example, 4 hours after administration of 30 mg/kg oral dose of the test compound in 2% hydroxypropyl methylcellulose, 1% Tween80 (pH2.2) to 200 g male Sprague Dawley rats, amyloid beta peptide levels are measured for reduction by X % and Y % in cerebrospinal fluid and brain, respectively, when compared to the levels measured in the vehicle-treated or control […].
Actual vehicles used: Oral: 2% HPMC, 1% Tween80, pH 2.2
• IV: 5% EtOH, 45% Propylene glycol in 5% Dextrose
The compounds of the invention may be shown to reduce the formation and/or deposition of amyloid beta peptide in the cerebrospinal fluid (CSF) as well as in the brain of a mouse or rat at either 3 mpk, 10 mpk or 30 mpk (mpk=mg compound per kg weight of the animal) dosing concentrations after 4 hrs.

Cathepsin D (Cat D) = target: T1, Cathepsin D (Cat D) (Homo sapiens, UniProt P07339); assay: In vitro enzymatic Cathepsin D (Cat D) FRET assay; type: biochemical; conditions: average IC50; first procedure; read-out: CatD IC50
T1 construct: made in house; host or cells: CHO cells
Procedure, shortened: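 Fluorescence (500 nm excitation, 580 nm emission) was measured after Tris quench of a 1 h cleavage of 20 nM quenched peptide substrate. Before that, 9 nM CHO-expressed human Cat D sat with compound for 1 h at pH 3.5 (0.05 M citrate, 5 mM CHAPS, 10% DMSO final).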

[1] = Abeta 40, rat CSF, read-out: % reduction of rat CSF levels at 10 pmk
[2] = Abeta 40, rat brain, read-out: % reduction of rat brain levels at 10 mpk

T1 sequence (P07339 65-412, species assumed): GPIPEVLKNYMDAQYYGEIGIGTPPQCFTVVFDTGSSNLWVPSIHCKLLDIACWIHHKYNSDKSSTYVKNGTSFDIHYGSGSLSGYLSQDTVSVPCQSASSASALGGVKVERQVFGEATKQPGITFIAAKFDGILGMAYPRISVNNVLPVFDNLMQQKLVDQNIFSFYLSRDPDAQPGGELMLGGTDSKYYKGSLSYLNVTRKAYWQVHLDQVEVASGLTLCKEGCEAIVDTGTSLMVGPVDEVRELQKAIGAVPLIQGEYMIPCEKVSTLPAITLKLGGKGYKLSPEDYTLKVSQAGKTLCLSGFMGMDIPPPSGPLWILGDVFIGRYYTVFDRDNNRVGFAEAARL

Structure (SMILES)	IC50 (Cathepsin D (Cat D)) [µM]	inhibition in vivo at 10 mg/kg (Abeta 40; [1]) [%]	inhibition in vivo at 10 mg/kg (Abeta 40; [2]) [%]	% reduction of rat CSF levels (3 mpk) (Abeta 40; Abeta 40, rat CSF)	% reduction of rat brain levels (3 mpk) (Abeta 40; Abeta 40, rat brain)
C#CCOc1cnc(C(=O)Nc2ccc(F)c([C@@]3(C)N=C(N)[C@@]4(CF)CC[C@@H]3S4(=O)=O)c2)c(C)n1 [Example 59, N-(3-((1S,2R,5R)-4-amino-5-(fluoromethyl)-2-methyl-8,8-dioxido-8-thia-3-azabicyclo[3.2.1]oct-3-en-2-yl)-4-fluorophenyl)-3-methyl-5-(2-propyn-1-yloxy)-2-pyrazinecarboxamide]	837	80	76		
COc1cnc2c(Nc3ccc(F)c([C@@]4(C)N=C(N)[C@@]5(C)CC[C@@H]4S5(=O)=O)c3)nccc2n1 [Example 80, N-(3-((1S,2R,5R)-4-amino-2,5-dimethyl-8,8-dioxido-8-thia-3-azabicyclo[3.2.1]oct-3-en-2-yl)-4-fluorophenyl)-2-methoxypyrido[3,4-b]pyrazin-5-amine]	> 400	72	63		
COc1cnc(C(=O)Nc2ccc(F)c([C@@]3(C)N=C(N)[C@@]4(CF)CC[C@@H]3S4(=O)=O)c2)c(C)n1 [Example 76, N-(3-((1S,2R,5R)-4-amino-5-(fluoromethyl)-2-methyl-8,8-dioxido-8-thia-3-azabicyclo[3.2.1]oct-3-en-2-yl)-4-fluorophenyl)-5-methoxy-3-methyl-2-pyrazinecarboxamide]	1060	76	66		
COc1cnc2c(Nc3ccc(F)c([C@@]4(C)N=C(N)[C@@]5(C)CC[C@@H]4S5(=O)=O)c3)ncnc2c1 [Example 132, N-(3-((1S,2R,5R)-4-amino-2,5-dimethyl-8,8-dioxido-8-thia-3-azabicyclo[3.2.1]oct-3-en-2-yl)-4-fluorophenyl)-7-methoxypyrido[3,2-d]pyrimidin-4-amine]	965	70	50		
COc1cnc2c(Nc3ccc(F)c([C@@]4(C)N=C(N)[C@@]5(CF)CC[C@@H]4S5(=O)=O)c3)nccc2c1 [Example 56, N-(3-((1S,2R,5R)-4-amino-5-(fluoromethyl)-2-methyl-8,8-dioxido-8-thia-3-azabicyclo[3.2.1]oct-3-en-2-yl)-4-fluorophenyl)-3-methoxy-1,7-naphthyridin-8-amine]	> 400	69			
COc1cnc2c(Nc3ccc(F)c([C@@]4(C)N=C(N)[C@@]5(C)CC[C@@H]4S5(=O)=O)c3)ncc(F)c2c1 [Example 78, N-(3-((1S,2R,5R)-4-amino-2,5-dimethyl-8,8-dioxido-8-thia-3-azabicyclo[3.2.1]oct-3-en-2-yl)-4-fluorophenyl)-5-fluoro-3-methoxy-1,7-naphthyridin-8-amine]	3240	52	46		

Continued by falling IC50 (Cathepsin D (Cat D)), values first:

IC50 (Cathepsin D (Cat D)) [µM]	Structure (SMILES)	inhibition in vivo at 10 mg/kg (Abeta 40; [1]) [%]	inhibition in vivo at 10 mg/kg (Abeta 40; [2]) [%]	% reduction of rat CSF levels (3 mpk) (Abeta 40; Abeta 40, rat CSF)	% reduction of rat brain levels (3 mpk) (Abeta 40; Abeta 40, rat brain)
811	C#CCOc1ccc(C(=O)Nc2ccc(F)c([C@@]3(C)N=C(N)[C@@]4(CF)CC[C@@H]3S4(=O)=O)c2)nc1 [Example 52, N-(3-((1S,2R,5R)-4-amino-5-(fluoromethyl)-2-methyl-8,8-dioxido-8-thia-3-azabicyclo[3.2.1]oct-3-en-2-yl)-4-fluorophenyl)-5-(2-propyn-1-yloxy)-2-pyridinecarboxamide]	67	62		
757	COc1cnc(C(=O)Nc2ccc(F)c([C@@]3(C)N=C(N)[C@@]4(CF)CC[C@@H]3S4(=O)=O)c2)c(C)c1 [Example 42, N-(3-((1S,2R,5R)-4-amino-5-(fluoromethyl)-2-methyl-8,8-dioxido-8-thia-3-azabicyclo[3.2.1]oct-3-en-2-yl)-4-fluorophenyl)-5-methoxy-3-methyl-2-pyridinecarboxamide]			21 (3 mpk) %	0 (3 mpk) %
733	Cc1cc(C#N)cnc1C(=O)Nc1ccc(F)c([C@@]2(C)N=C(N)[C@@]3(CF)CC[C@@H]2S3(=O)=O)c1 [Example 96, N-(3-((1S,2R,5R)-4-amino-5-(fluoromethyl)-2-methyl-8,8-dioxido-8-thia-3-azabicyclo[3.2.1]oct-3-en-2-yl)-4-fluorophenyl)-5-cyano-3-methyl-2-pyridinecarboxamide]			60 (3 mpk) %	39 (3 mpk) %
717	CC#CCOc1cnc(C(=O)Nc2ccc(F)c([C@@]3(C)N=C(N)[C@@]4(C)CC[C@@H]3S4(=O)=O)c2)cn1 [Example 82, N-(3-((1S,2R,5R)-4-amino-2,5-dimethyl-8,8-dioxido-8-thia-3-azabicyclo[3.2.1]oct-3-en-2-yl)-4-fluorophenyl)-5-(2-butyn-1-yloxy)-2-pyrazinecarboxamide]	71	56		
685	Cc1cc(Cl)cnc1C(=O)Nc1ccc(F)c([C@@]2(C)N=C(N)[C@@]3(CF)CC[C@@H]2S3(=O)=O)c1 [Example 88, N-(3-((1S,2R,5R)-4-amino-5-(fluoromethyl)-2-methyl-8,8-dioxido-8-thia-3-azabicyclo[3.2.1]oct-3-en-2-yl)-4-fluorophenyl)-5-chloro-3-methyl-2-pyridinecarboxamide]	77	70		
650	C[C@]1(c2cc(Nc3ncnc4cc(C#N)cnc34)ccc2F)N=C(N)[C@@]2(CF)CC[C@@H]1S2(=O)=O [Example 40, 4-((3-((1S,2R,5R)-4-amino-5-(fluoromethyl)-2-methyl-8,8-dioxido-8-thia-3-azabicyclo[3.2.1]oct-3-en-2-yl)-4-fluorophenyl)amino)pyrido[3,2-d]pyrimidine-7-carbonitrile]	59	24		
451	Cc1cc(OC(F)F)cnc1C(=O)Nc1ccc(F)c([C@@]2(C)N=C(N)[C@@]3(CF)CC[C@@H]2S3(=O)=O)c1 [Example 102, N-(3-((1S,2R,5R)-4-amino-5-(fluoromethyl)-2-methyl-8,8-dioxido-8-thia-3-azabicyclo[3.2.1]oct-3-en-2-yl)-4-fluorophenyl)-5-(difluoromethoxy)-3-methyl-2-pyridinecarboxamide]	67	68		
359	COc1cnc2c(Nc3ccc(F)c([C@@]4(C)N=C(N)[C@@]5(CF)CC[C@@H]4S5(=O)=O)c3)ncnc2c1 [Example 97, N-(3-((1S,2R,5R)-4-amino-5-(fluoromethyl)-2-methyl-8,8-dioxido-8-thia-3-azabicyclo[3.2.1]oct-3-en-2-yl)-4-fluorophenyl)-7-methoxypyrido[3,2-d]pyrimidin-4-amine]	75	76		
337	C[C@]1(c2cc(Nc3nccc4cc(C#N)cnc34)ccc2F)N=C(N)[C@@]2(CF)CC[C@@H]1S2(=O)=O [Example 100, 8-((3-((1S,2R,5R)-4-amino-5-(fluoromethyl)-2-methyl-8,8-dioxido-8-thia-3-azabicyclo[3.2.1]oct-3-en-2-yl)-4-fluorophenyl)amino)-1,7-naphthyridine-3-carbonitrile]	67	59		

— US9096615B2, “Bridged bicyclic amino thiazine dioxide compounds as inhibitors of beta-secretase and methods of use thereof” (AMGEN INC., priority 2013, dated 2015)
